From patent US20090233997A1, “COMPOSITION FOR PROMOTING SYNTHESIS OF COLLAGEN, AND COMPOSITION FOR EXTERNAL PREPARATION FOR SKIN COMPRISING THE SAME” (LG HOUSEHOLD & HEALTH CARE, LTD., priority 2003, published 2009)
≈ marks a conversion by molar mass, not a printed value. Where “and” joins values, the source holds several entries; their conditions need not be identical. Identical values can stand only once.

Legend:
[1] = test system: ear edema of hairless mice; assay: Anti-inflammatory effect, ear swelling method (arachidonic acid); format: in vivo; conditions: 1 wt % in ethanol, 20 μl/ear, 2 mg/ear arachidonic acid, test ear vs controlled ear, group of 3
Method: The anti-inflammatory effect was evaluated in an ear swelling method by using 6-week-old hairless mice. The left ears of the hairless mice were used as controlled areas to be compared with the test areas, and the right ears of the hairless mice were used as the test areas. Prior to the test, both ears of all the hairless mice were measured three times. Sample solutions were prepared by extracting xanthotoxol, 8-hydroxybergapten, and prangenidin in accordance with […] and dissolving them in ethanol at 1 wt %, individually. Then, 20 μl/ear sample solutions were applied to the right ears of the hairless mice, and 20 μl/ear of ethanol was applied to the left ear thereof. An hour later, 2 mg/ear of arachidonic acid was applied to both ears of the hairless mice. After another hour had passed, the extent of ear edema was measured by using a micrometer, three times. Also, for comparison purposes, the anti-inflammatory effect of indomethacine, which is generally known as an anti-inflammatory agent, was measured with the same method.
The anti-inflammatory effect was a ratio of a thickness of an ear in the test area to the thickness of an ear in the controlled area. It was calculated based on the following Equation 1 and presented as a damage rate.
Damage rate (%)=(thickness of ear in test area/thickness of ear in controlled area)×100 Equation 1

[2] = test system: human fibroblasts; assay: Collagen synthesis effect in human fibroblast culture (PICP EIA Kit); format: cell-based; conditions: for Quantity of Synthesized Collagen: cultured one day, 450 nm, n=6; for Increase Rate: relative ratio to collagen generation of control group
Method: The collagen synthesis effect of Xanthotoxol was tested by adding Xanthotoxol to a culture broth for human fibroblasts. The quantity of the synthesized collagen was assayed by using a Procollagen Type I C-Peptide Enzyme ImmunoAssay (PICP EIA) Kit.
Xanthotoxol solution aliquots having final concentrations of 0.5 μg/ml, 1 μg/ml, 2 μg/ml, 5 μg/ml, and 10 μg/ml were added to a culture media for human fibroblasts, and the fibroblasts were cultured for one day. The culture broth of each concentration was taken out and the quantity of synthesized collagen was measured with a spectrophotometer at 450 nm by using the PICP EIA Kit.
To compare the effect of collagen synthesis, the human fibroblasts were cultured in a culture medium to which no extra element was added (i.e., a control group) and in a culture medium to which vitamin C having a final concentration of 52.8 μg/ml was added, and the quantity of synthesized collagen was measured with respect to the two samples with the same method as above.
The quantity of generated collagen was measured by using an ultraviolet ray (UV) spectrophotometer, and the increase rate of collagen generation was calculated in a relative ratio with respect to the collagen generation quantity of the control group.
The quantity of synthesized collagen and the increase rate of collagen were measured with the same method as in Experimental Example 1, except that 8-hydroxybergapten was used instead of xanthotoxol.
The quantity of synthesized collagen and the increase rate of collagen were measured with the same method as in Experimental Example 1, except that prangenidin was used instead of xanthotoxol.

[3] = test system: skin wrinkles of hairless mice; assay: Anti-wrinkle effect on hairless mice with light-induced skin wrinkles; format: in vivo; conditions: 5 mg/ml in 1,3-butyleneglycol, treated 6 weeks, group of 10
Method: The anti-wrinkle effects of xanthotoxol, 8-hydroxybergapten, and prangenidin were tested with respect to 6-week-old hairless mice having skin wrinkles caused by radiating light. Samples were prepared by extracting xanthotoxol, 8-hydroxybergapten, and prangenidin in accordance with Examples 1 through 3 and dissolving them in 1,3-butyleneglycol to thereby prepare 5 mg/ml sample solutions.
The skin wrinkles were caused by radiating light of 2 Minimum Erythema Dose (MED) to hairless mice with a solar simulator, three days a week for 10 weeks. Then, the improvement was assayed based on quality with respect to a control group of hairless mice treated with 1,3-butyleneglycol and test groups of hairless mice treated with the 5 mg/ml samples for 6 weeks.
The extent of wrinkle improvement was determined with the naked bare eye and by photographing the areas treated with the samples. The test groups and the control group were compared and the result was determined in three steps: no improvement; some improvement; and remarkable improvement.

[4] = test system: incision wounds of rats; assay: Wound healing effect, tension stiffness method; format: in vivo; conditions: for Tensile Strength: 1 wt % in ethanol, 0.5 ml/cm^2 once every day for 6 days; for Strength Rate: relative to control group (ethanol only) taken as 100%
Method: A wound healing effect was tested with respect to 5-week-old male rats by using a tension stiffness method that reflects the quality and quantity of restoration from wounds. The backs of the rats were shaved and wounded with a scalpel, and then the incision was sutured. Sample solutions were prepared by extracting 8-hydroxybergapten and prangenidin in accordance with Examples 2 and 3, and dissolving them in ethanol at 1 wt %, individually. The sample solutions were injected into the incisions at 0.5 ml/cm^2 once every day for 6 days. After 6 days, the rats were sacrificed and the skin around the wounds was removed. Three skin specimens of 1 cm-wide skin flakes crossing the incision line were prepared for each individual and their tensile strength (g/cm) was measured by using a rheometer. The measured tensile strength was used as an index of the strength of the generated collagen fiber. The tensile strength of the control group, to which only ethanol without the sample therein was applied, was taken as 100% and the increase in the tensile strength was measured as a relative strength thereto.

[5] = Antioxidative effect in the DPPH scavenging method; conditions: 30 minutes, 517 nm
Method: The antioxidative effects of 8-hydroxybergapten and prangenidin were measured by using 1,1-diphenyl-2-picrylhydrazyl (DPPH). The radical scavenging activity of each sample was calculated by measuring an optical density (O.D.) at 517 nm with a spectrophotometer. Sample solutions were prepared by extracting samples, i.e., 8-hydroxybergapten and prangenidin, in accordance with the methods of Examples 2 and 3 and mixing the samples in concentrations of 3 μg/ml, 5 μg/ml, 10 μg/ml, 12 μg/ml, 50 μg/ml, 80 μg/ml, and 100 μg/ml, individually. Then, experimental solutions were prepared by mixing the 500 μl aliquots of the tested sample solutions with 500 μl of a 1.5×10^−4 M DPPH methanolic solution. The quantity of DPPH remaining in each experimental solution was measured 30 minutes after the preparation of experimental solutions by using the spectrophotometer at 517 nm. In order to subtract the inherent optical densities of the samples from the measurement values of the experimental solutions, the optical densities of the sample solutions of the same concentrations were also measured at 517 nm. A control solution was prepared by mixing 500 μl of a 1.5×10^−4 M DPPH methanolic solution with 500 μl of a methanol solution and using the mixture 30 minutes after the preparation. The radical scavenging activity of each sample was calculated based on the following Equation 2.
To determine the radical scavenging activity of each sample, a coefficient of correlation (R), which is a value in connection with the radical scavenging activity, was obtained, and an IC50, a value that scavenges DPPH by 50%, was calculated. Also, in order to compare the antioxidative effects, the same experiment was carried out with respect to vitamin C.

| Structure (SMILES) | IC 50 (scavenges DPPH by 50%) [5] [µg/mL] | Damage Rate [1] [%] | Quantity of Synthesized Collagen ([2]; 0.5 μg/ml) [Abs] | Increase Rate ([2]; 0.5 μg/ml) [%] | Quantity of Synthesized Collagen ([2]; 1.0 μg/ml) [Abs] | Increase Rate ([2]; 1.0 μg/ml) [%] | Quantity of Synthesized Collagen ([2]; 2.0 μg/ml) [Abs] | Increase Rate ([2]; 2.0 μg/ml) [%] | Quantity of Synthesized Collagen ([2]; 5.0 μg/ml) [Abs] | Increase Rate ([2]; 5.0 μg/ml) [%] | Quantity of Synthesized Collagen ([2]; 10.0 μg/ml) [Abs] | Increase Rate ([2]; 10.0 μg/ml) [%] | No Improvement (number of mice) [3] | Remarkable Improvement (number of mice) [3] | Some Improvement (number of mice) [3] | Tensile Strength [4] [g/cm] | Strength Rate [4] [%] | Quantity of Synthesized Collagen ([2]; 52.8 μg/ml) | Increase Rate ([2]; 52.8 μg/ml) |
| --- | --- | --- | --- | --- | --- | --- | --- | --- | --- | --- | --- | --- | --- | --- | --- | --- | --- | --- | --- |
| COc1ccc2c(c1)c(CC(=O)O)c(C)n2C(=O)c1ccc(Cl)cc1 [Indomethacine, indomethacine, reference compound] |  | 51 |  |  |  |  |  |  |  |  |  |  |  |  |  |  |  |  |  |
| O=c1ccc2cc3ccoc3c(O)c2o1 [Xanthotoxol, 8-hydroxypsoralen] | 24.0 (≈ 119 µM) | 42 | 1.449 ± 0.039 | 128.36 | 1.535 ± 0.078 | 135.94 | 1.623 ± 0.084 | 143.75 | 1.651 ± 0.130 | 146.24 | 1.657 ± 0.112 | 146.81 | 2 | 3 | 5 | 642 | 117 |  |  |
| O=C1O[C@H]([C@@H](O)CO)C(O)=C1O [Vitamin C, vitamin C, reference compound] | 8.43 (≈ 47.9 µM) |  |  |  |  |  |  |  |  |  |  |  |  |  |  |  |  | 1.598 ± 0.145 Abs and 1.757 ± 0.121 Abs and 1.739 ± 0.145 Abs | 141.57% and 134.1% and 130.8% |

Second part, led by results:

| IC 50 (scavenges DPPH by 50%) [5] [µg/mL] | Structure (SMILES) | Damage Rate [1] [%] | Quantity of Synthesized Collagen ([2]; 0.5 μg/ml) [Abs] | Increase Rate ([2]; 0.5 μg/ml) [%] | Quantity of Synthesized Collagen ([2]; 1.0 μg/ml) [Abs] | Increase Rate ([2]; 1.0 μg/ml) [%] | Quantity of Synthesized Collagen ([2]; 2.0 μg/ml) [Abs] | Increase Rate ([2]; 2.0 μg/ml) [%] | Quantity of Synthesized Collagen ([2]; 5.0 μg/ml) [Abs] | Increase Rate ([2]; 5.0 μg/ml) [%] | Quantity of Synthesized Collagen ([2]; 10.0 μg/ml) [Abs] | Increase Rate ([2]; 10.0 μg/ml) [%] | No Improvement (number of mice) [3] | Remarkable Improvement (number of mice) [3] | Some Improvement (number of mice) [3] | Tensile Strength [4] [g/cm] | Strength Rate [4] [%] | Quantity of Synthesized Collagen ([2]; 52.8 μg/ml) | Increase Rate ([2]; 52.8 μg/ml) |
| --- | --- | --- | --- | --- | --- | --- | --- | --- | --- | --- | --- | --- | --- | --- | --- | --- | --- | --- | --- |
| 20.3 (≈ 87.4 µM) | COc1c2ccoc2c(O)c2oc(=O)ccc12 [8-Hydroxybergapten, 5-benzofuranacrylic acid and 6,7-dihydroxy-4-methoxy-, delta-lactone] | 45 | 1.590 ± 0.102 | 121.4 | 1.876 ± 0.097 | 143.2 | 1.949 ± 0.111 | 148.8 | 1.953 ± 0.132 | 149.1 | 2.008 ± 0.129 | 153.3 | 0 | 6 | 4 | 680 | 124 |  |  |
| 21.6 (≈ 79.9 µM) | CC(C)=CCc1c2ccoc2c(O)c2oc(=O)ccc12 [Prangenidin, 5-Benzofuranacrylic acid, 6,7-dihydroxy-4-(3-methyl-2-butenyl)-delta-lactone] | 40 | 1.537 ± 0.099 | 115.6 | 1.778 ± 0.121 | 133.7 | 1.801 ± 0.135 | 135.4 | 1.813 ± 0.130 | 136.3 | 1.820 ± 0.204 | 136.8 | 1 | 4 | 5 | 663 | 121 |  |  |
